Results taken from patent publication US20180015170A1, “CYCLODEXTRIN-BASED POLYMERS FOR THERAPEUTIC DELIVERY” (CERULEAN PHARMA INC., priority 2012, published 2018).
“And” between values parts separate entries of the source, which are not always exact repeats. Equal entries are not always repeated.

Tests used:
B16.F10 cells = assay: Efficacy of CDP-docetaxel nanoparticles in a murine melanoma model; format: in vivo, male C57BL/6 mice
Method: (§1) Animals were monitored for any morbidity and adverse effect three times a week.
Tumor volume was calculated with a (width×width×length)/2 mm^3 formula.

[1] = Tolerability (body weight) in the B16.F10 murine melanoma model
Method: as §1
Health monitoring was conducted three times a week to evaluate lethargy, tremors, hypothermia, ataxia, hind limb paralysis etc. The criteria at which a mouse was removed from the study were >20% body weight loss or severe morbidity or hind limb paralysis.

[2] = 15 mg/kg IV, weekly schedule for 3 injections
[3] = 30 mg/kg IV, weekly schedule for 3 injections (sections 1.4, 2.3, 4.2, 5.2)

Substance	day on which the mean tumor volume endpoint (≧3000 mm^3) was reached (B16.F10 cells; mouse, in vivo)	day on which the mean tumor volume endpoint (≧3000 mm^3) was reached (B16.F10 cells; [2])	Tumor growth delay (TGD) (B16.F10 cells; [2])	increase in TGD (B16.F10 cells; [2])	Tumor growth delay (TGD) (B16.F10 cells; [3])	day on which the mean tumor volume endpoint (≧3000 mm^3) was reached (B16.F10 cells; [3])	increase in TGD (B16.F10 cells; [3])	Maximum body weight loss (%) [1, 2]	Maximum body weight loss (%) [1, 3]
CDP-2′-alanine glycolate-docetaxel [CDP-Ala Gly-DTX formulation]	43 days and 33 days and 29 days								
CDP-2′-aminoethoxyethoxy-Docetaxel [CDP-aminoethoxyethoxy-DTX formulation]		33 days							
CDP-dithiolethyloxy-carbonate-docetaxel [CDP-ethane-S-S-ethane-DTX formulation]		21 days	2 days	11%	5 days	24 days	26%	did not cause any body weight loss	did not cause any significant body weight loss
